Measured values from patent US10597398B2, “Suppression and regeneration promoting effect of low molecular weight compound on cancer and fibrosis” (NATIONAL UNIVERSITY CORPORATION TOTTORI UNIVERSITY, priority 2015, dated 2020).

Tested on: Wnt/β-catenin signaling
Assay: Inhibitory effect on Wnt/β-catenin signaling in liver stellate cells (LX-2, TCF4 luciferase)
Assay type: cell-based, human
Details: concentration equal to or lower than that of IC-2
Experimental: While each compound was added at concentrations where the cell growth of fibrosis-causing liver stellate LX-2 cells was reduced to about 50 to 80%, Wnt/β-catenin signaling activity was measured. […] The concentrations of the respective compounds were as described in FIG. 41. Each control sample used was 0.1% DMSO, a solvent for each compound.
LX-2 cells, which were cultured and maintained by using 10% FBS/DMEM, were harvested and seeded (n=3) in 1% FBS/DMEM at 4.0×10^4 cells per well of a 24-well plate. Next, 25 μL of Opti-MEM (Gibco, Life Technologies Corp., Carlsbad, Calif.) containing 50 ng of pTCF4-CMVpro-GL4.20, having 3 copies of TCF motifs (CCT TTG ATC) upstream of a CMV promoter in a multiple cloning site of pGL4.20 (Promega), and 5 ng of pRL-CMV Vector (Promega) and 25 μL of Opti-MEM containing 0.4 μL of Lipofectamine 2000 (Invitrogen, Life Technologies Corp., Carlsbad, Calif.) were mixed and incubated at room temperature for 20 min. At 20 h after the cell seeding, the mixture was added to each well, so that both reporter plasmids were transiently transfected into the cells. After additional 4 h, 2.5 ng/mL of TGF-β and each compound were added to the cells and the mixture was cultured at 37° C.
At 24 and 48 h after the compound treatment, the culture medium was discarded, and 100 μL of room temperature 5×Passive Lysis Buffer (PLB), which had been diluted 5-fold with MilliQ water, was added to each well. Next, the plate was shaken at room temperature for 15 min and was then frozen at −30° C. overnight. A Luciferase Assay Substrate was diluted with 10 mL of room temperature Luciferase Assay Buffer II to prepare Luciferase Assay Reagent II (LARII). Then, 1 μL of Stop&Glo Substrate was diluted with 49 μL of room temperature Stop&Glo Buffer to prepare Stop&Glo (Promega) in a quantity enough for samples.
The frozen PLB lysate samples were thawed and permeabilized for 15 min. After that, 50 μl aliquots of LARII were dispensed into 3.5 mL test tubes (Sarstedt, AG & Co., Numbrecht, Germany) and 10 μL of each frozen PLB lysate sample was added and mixed well. Subsequently, luminescence was quantified by using a MiniLumat LB 9506 (Berthold Technologies GmbH & Co, Bad Wildbad, Germany) to measure firefly luciferase activity. After the measurement, 50 μL of Stop&Glo was added and mixed well and luminescence was then quantified by using the MiniLumat LB 9506 to determine Renilla luciferase activity. The measurement results were obtained by dividing the firefly luciferase activity by the Renilla luciferase activity.

Structure (SMILES) | inhibitory effect on Wnt/β-catenin signaling pathway in liver stellate cells compared with IC-2
O=C1C(Cc2ccccc2)N2C(=O)CCN(c3ccccc3[N+](=O)[O-])C2CN1Cc1cccc2ccccc12 (centres unmarked) [Compound 7c-NT] | more potent inhibitory effect
O=C1C(Cc2ccccc2)N2C(=O)CCN(C(=O)NCc3ccccc3)C2CN1Cc1cccc(Cl)c1Cl (centres unmarked) [IC-2-506-1] | more potent inhibitory effect
O=C1C(Cc2ccccc2)N2C(=O)CCN(C(=O)NCc3ccccc3)C2CN1Cc1ccc(Cl)c(Cl)c1 (centres unmarked) [IC-2-506-3] | more potent inhibitory effect

Tested on: Wnt/β-catenin signaling
Assay: Inhibitory effect on Wnt/β-catenin signaling in liver cancer cells (HuH7-TCF4 luciferase)
Assay type: cell-based, human
Details: concentration equal to or lower than that of IC-2
Experimental: A pTCF4-CMVpro-GL4.20 plasmid vector, which had been constructed by inserting 3 copies of TCF4 motifs (CCT TTG ATC) upstream of a CMV promoter into a multiple cloning site of pGL4.20 (Promega Corp., Fitchburg, Wis.), was linearized and stably transfected into the HuH-7 cells. The resulting stable cells (HuH7-TCF4 cells) and HuH-7 cells were likewise cultured.
While each compound was added at concentrations where the growth of HuH-7 cells was reduced to about 50% or less, Wnt/β-catenin signaling activity was measured. The concentrations of the respective compounds were as described in FIG. 40. Control samples used were 0.1% DMSO, a solvent for each compound, and 0.5 μM 5-FU.
First, 70 to 90% confluent HuH7-TCF4 cells were harvested and seeded (n=3) at 5.0×10^4 cells/well of a 24-well plate (TPP). After 24 h, each compound was added to the cells and the mixture was cultured at 37° C.
At 48 h after the compound treatment, the culture medium was discarded, and 100 μL of room temperature 5×Passive Lysis Buffer (PLB) (Promega Corp., Fitchburg, Wis.), which had been diluted 5-fold with MilliQ water, was added to each well. Next, the plate was shaken at room temperature for 15 min and was then frozen at −30° C. overnight. A Luciferase Assay Substrate was diluted with 10 mL of room temperature Luciferase Assay Buffer II to prepare Luciferase Assay Reagent II (LARII) (Promega). The frozen PLB lysate samples were thawed and permeabilized for 15 min. Then, 10 μL aliquots were added to wells of a 96-well white plate (Corning Inc., Corning, N.Y.). While 50 μL aliquots of LARII were each added to each well, luminescence was quantified by using a 1420 multi-label counter ARVO MX (PerkinElmer Singapore Pte Ltd., Singapore) to determine firefly luciferase activity. Note that a significant difference was evaluated by using (two-tailed) Student's t-test. The “*” in figures indicates a significant difference of p<0.05 between 0.1% DMSO and each compound; and the “**” indicates a significant difference of p<0.01 (the same applies to all the figures in Examples).

Structure (SMILES) | inhibitory effect on Wnt/β-catenin signaling pathway in liver cancer cells compared with IC-2
O=C1C(Cc2ccccc2)N2C(=O)CCN(C(=O)NCc3ccccc3)C2CN1Cc1cccc(Cl)c1Cl (centres unmarked) [IC-2-506-1] | more potent inhibitory effect
O=C1C(Cc2ccccc2)N2C(=O)CCN(C(=O)NCc3ccccc3)C2CN1Cc1ccc(Cl)cc1 (centres unmarked) [IC-2-Ar—Cl] | more potent inhibitory effect

Tested on: LX-2 cells
Assay: Anti-fibrosis effect, summary statements on Example 3 (marker not specified)
Assay type: cell-based, human
Details: concentration equal to or higher than that of IC-2
Text: α-Smooth muscle actin (α-SMA), a fibrosis marker, was used as an indicator, and RNA was collected from LX-2 cells treated with each low-molecular-weight compound. Next, an inhibitory effect on fibrosis was examined by real-time RT-PCR.
In addition, instead of α-SMA, another fibrosis marker collagen, type I, alpha 1 (COL1A1) was used as an indicator, and substantially the same protocol was repeated. The concentrations of each compound used were as described in FIG. 34. Each control sample used was 0.1% DMSO, a solvent for each compound. Here, COL1A1 primers used were 5′-CCT CCA GGG CTC CAA CGA G-3′ and 5′-TCAATCACTGTCTTGCCCCA-3′. The annealing was performed at 58° C. for 5 sec. The measurement results were obtained by dividing the calculated value for the COL1A1 gene by the calculated value for the GAPDH gene.

Structure (SMILES) | anti-fibrosis effect compared with IC-2, equal or higher concentration
O=C1C(Cc2ccccc2)N2C(=O)CCN(C(=O)NCc3ccccc3)C2CN1Cc1cccc(Cl)c1Cl (centres unmarked) [IC-2-506-1] | more potent anti-fibrosis effect
O=C1C(Cc2ccccc2)N2C(=O)CCN(C(=O)NCc3ccccc3)C2CN1Cc1ccc(Cl)cc1 (centres unmarked) [IC-2-Ar—Cl] | more potent anti-fibrosis effect

Same assay, conditions: concentration even lower than that of IC-2

Structure (SMILES) | anti-fibrosis effect compared with IC-2, lower concentration
O=C1C(Cc2ccccc2)N2C(=O)CCN(C(=O)NCc3ccccc3)C2CN1Cc1ccc(Cl)c(Cl)c1 (centres unmarked) [IC-2-506-3] | more potent anti-fibrosis effect

Tested on: HuH-7 cells
Assay: Growth inhibitory effect on cancer cells (WST assay), Example 2.3
Assay type: cell-based, human
Details: HuH-7 cells, WST assay, concentrations 0-50 μM, control 0.1% DMSO
Experimental: HuH-7 cells, a human liver cancer cell line, were cultured on 10-cm cell culture dishes (TPP Techno Plastic Products AG, Trasadingen, Switzerland) by using DMEM under conditions at 5% CO2, 37° C., and 100% humidity. When the cells were 70 to 90% confluent, 200 μL of 0.25% Trypsin/1 mM EDTA solution, which had been prepared by diluting the stock solution 10-fold with PBS (−), was added to detach the cells. Then, the cells were centrifuged at 1000 rpm for 3 min at room temperature. The cells recovered were subcultured at a 1:4 split ratio.
First, 70 to 90% confluent HuH-7 cells were harvested and seeded (n=3) at 5×10^3 cells/well of a 96-well plate (TPP). After 24 h, each compound was added to the cells and the mixture was cultured at 37° C. The concentrations of each compound were 0, 10, 20, 30, 40, and 50 μM. For IC-2-506-1, however, the concentrations used were 0, 10, 20, 25, 30, 40, and 50 μM. Each control sample (0 μM) used was 0.1% DMSO, a solvent for each compound.
Next, 0, 24, 48, and 96 h after the compound treatment, 100 μIL of DMEM-diluted 10% Cell Counting Kit-8 (DOJINDO LABORATORIES, Kumamoto) was added. The mixture was incubated at 37° C. for 60 min and its absorbance (at a measurement wavelength of 450 nm/control wavelength of 600 nm) was measured by using a Sunrise Rainbow RC (Tecan Group Ltd., Mannedorf, Switzerland). Absorbance for the cells alone was calculated by subtracting, from the reading obtained, absorbance for 10% Cell Counting Kit-8 alone.
The “*” in figures indicates a significant difference of p<0.05 between 0.1% DMSO and each compound; and the “**” indicates a significant difference of p<0.01 (the same applies to all the figures in Examples).

IC50 [µM] | Structure (SMILES)
36.1 | O=C1C(Cc2ccccc2)N2C(=O)CCN(c3ccccc3[N+](=O)[O-])C2CN1Cc1cccc2ccccc12 (centres unmarked) [Compound 7c-NT]
14.1 | O=C1C(Cc2ccccc2)N2C(=O)CCN(C(=O)NCc3ccccc3)C2CN1Cc1cccc(Cl)c1Cl (centres unmarked) [IC-2-506-1]
18.3 | O=C1C(Cc2ccccc2)N2C(=O)CCN(C(=O)NCc3ccccc3)C2CN1Cc1ccc(Cl)c(Cl)c1 (centres unmarked) [IC-2-506-3]
45.1 | O=C1C(Cc2ccccc2)N2C(=O)CCN(C(=O)NCc3ccccc3)C2CN1Cc1ccc(Cl)cc1 (centres unmarked) [IC-2-Ar—Cl]

Same assay, conditions: at a concentration lower than that of IC-2

Structure (SMILES) | anti-tumor effect compared with IC-2
O=C1C(Cc2ccccc2)N2C(=O)CCN(C(=O)NCc3ccccc3)C2CN1Cc1cccc(Cl)c1Cl (centres unmarked) [IC-2-506-1] | more potent anti-tumor effect

Same assay, conditions: comparison with IC-2

IC50 compared with IC-2 | Structure (SMILES)
lower IC50 than IC-2 | O=C1C(Cc2ccccc2)N2C(=O)CCN(C(=O)NCc3ccccc3)C2CN1Cc1cccc(Cl)c1Cl (centres unmarked) [IC-2-506-1]
lower IC50 than IC-2 | O=C1C(Cc2ccccc2)N2C(=O)CCN(C(=O)NCc3ccccc3)C2CN1Cc1ccc(Cl)c(Cl)c1 (centres unmarked) [IC-2-506-3]

Tested on: Wnt/β-catenin signaling
Assay: Inhibitory effect on Wnt/β-catenin signaling in mesenchymal stem cells (E7-TCF4 luciferase)
Assay type: cell-based, human
Details: E7-TCF4 cells, day 8 after compound addition, compared with control 0.1% DMSO
Experimental: A pTCF4-CMVpro-GL4.20 plasmid vector, having 3 copies of TCF4 motifs (CCT TTG ATC) upstream of aCMV promoter in a multiple cloning site of pGL4.20 (Promega Corp., Fitchburg, Wis.), was linearized and stably transfected into UE7T-13 cells to prepare E7-TCF4 cells. Also, a pCMVpro-GL4.20 plasmid vector, having a CMV promoter in a multiple cloning site of pGL4.20, was linearized and stably transfected into UE7T-13 cells. The resulting stable cells (E7-CMV cells) were cultured, like UE7T-13 cells, in 10% FBS/DMEM containing 0.25 μg/mL puromycin.
UE7T-13 cells were used to measure Wnt/β-catenin signaling activity. The concentrations of the respective compounds were as described in FIG. 42. Each control sample used was 0.1% DMSO, a solvent for each compound.
First, 70 to 90% confluent E7-TCF4 cells and E7-CMV cells were harvested and seeded (n=3) at 1.6758×10^4 cells/well of a 24-well plate (9.0×10^3 cells/cm^2). One day after that, each compound was added to the cells and the mixture was cultured at 37° C. Day 4 after the compound addition, the culture medium was changed.
At day 1, 4, or 8 after the compound treatment, the culture medium was discarded, and 100 μL of room temperature 5×Passive Lysis Buffer (PLB), which had been diluted 5-fold with MilliQ water, was added to each well. Next, the plate was shaken at room temperature for 15 min and was then frozen at −30° C. overnight. A Luciferase Assay Substrate was diluted with 10 mL of room temperature Luciferase Assay Buffer II to prepare Luciferase Assay Reagent II (LARII). The frozen PLB lysate samples were thawed and permeabilized for 15 min. Then, 10 μL aliquots were added to wells of a 96-well white plate. While 50 μL aliquots of LARII were each added to each well, luminescence was quantified by using a 1420 multi-label counter ARVO MX to determine firefly luciferase activity.

Structure (SMILES) | inhibitory effect on Wnt/β-catenin signaling in mesenchymal stem cells
O=C1C(Cc2ccccc2)N2C(=O)CCN(c3ccccc3[N+](=O)[O-])C2CN1Cc1cccc2ccccc12 (centres unmarked) [Compound 7c-NT] | all the compounds except for IC-2-Ar-OMe, 9b, and 7c-NT exhibited a significant inhibitory effect

Same assay, conditions: concentration equal to or lower than that of IC-2

Structure (SMILES) | inhibitory effect on Wnt/β-catenin signaling pathway in mesenchymal stem cells compared with IC-2
O=C1C(Cc2ccccc2)N2C(=O)CCN(C(=O)NCc3ccccc3)C2CN1Cc1ccc(Cl)cc1 (centres unmarked) [IC-2-Ar—Cl] | more potent inhibitory effect
